These results are taken from patent US7148250B2, “Indoles as NAALADase inhibitors” (Guilford Pharmaceuticals Inc., priority 2001, dated 2006).

For one test, the target named is T1, NAALADase (Homo sapiens, UniProt Q04609).
T1 construct: from tissue; host or cells: unspecified "tissue"
As to the kind of experiment: In vitro inhibition of NAALADase activity. It is filed as biochemical. As to conditions: average IC50 values. Here is the method:
Various compounds of the invention were tested for in vitro inhibition of NAALADase activity.
The following were combined in assay tubes: 100 μL of 10 mM CoCl2, 250 μof 200 mM Tris chloride, 100 μL tissue, 100 μL of 10 mM NAALADase inhibitor in Bakers H2O, and Bakers H2O to make a total volume of 950 μL. Each assay tube was then incubated for 10 minutes in a 37 EC water bath. […] The assay was stopped by adding 1.0 ml of 0.1 M sodium phosphate.
Glutamate released by the action of the NAALADase enzyme was separated from the assay solution using an anion exchange resin. The resin was equilibrated to 25 EC, 2.0 ml of the resin was added to a Pasteur pipette pre-loaded with a single glass bead, and each column was washed twice with distilled H2O. A column was placed over a scintillation vial and 200 μL of an assay sample was loaded onto the column. After draining, glutamate was eluted using two 1.0 ml washes of 1 M formic acid. After addition of 10 ml of scintillation cocktail, each sample was counted for 2 minutes on a scintillation counter.

Test [1] has as its system STZ-diabetic rats. The experiment in a line: Neuropathic pain in STZ model (thermal withdrawal latency). It is filed as in vivo, rat. The conditions noted are these: 10 mg/kg i.p. daily, treatment from 45 days post STZ. Here is the method: Male Sprague-Dawley rats (200–225 g) were rendered diabetic by intravenous administration of streptozotocin (“STZ”, 70 mg/kg in phosphate buffered saline). Diabetic animals were divided into five groups: one group receiving Compound A (10 mg/kg or 1 mg/kg), Compound D (10 mg/kg or 1 mg/kg) or vehicle. Another group of animals (non-STZ treated) served as non-diabetic controls. Drug/vehicle treatment was started in diabetic animals 45 days post-STZ administration. STZ-induced diabetic rats were tested for sensitivity to a heat source as soon as blood glucose levels rose to 320 mg/dl or above (30 days post STZ). The rats were then acclimated to a Hargreaves apparatus and thermal nociception was monitored using an infrared heat source directed into the dorsal surface of the hindpaw, and the time taken for the animal to remove its paw noted to the nearest 0.1 seconds (see Hargreaves et al., supra, for detailed experimental method). The intensity of the beam source was adjusted such that the mean latency for control animals (non-STZ treated) was approximately 10 seconds. Each animal was tested 8 times and the mean difference score (between mean non-diabetic control latency and mean diabetic latency) are graphically presented in FIGS. 7A and 7B.

Test [2] concerns STZ-diabetic rats. The experiment in a line: Diabetic neuropathy in STZ model (nerve conduction velocity). It is filed as in vivo, rat. Here is the method: Motor and sensory nerve conduction velocity was also measured in STZ-diabetic animals after 4, 8 and 12 weeks of treatment (see De Koning et al., supra, for a description of the experimental method). Briefly, stimulating needle electrodes were inserted close to the sciatic and tibial nerves with recording electrodes being placed subcutaneously over the distal foot muscles, in anesthetized rats.

A further test deals with BB/W diabetic rats. The experiment in a line: Progression of neuropathic pain and nerve conduction deficits in BB/W model. The test is classed as in vivo, rat. The source says:
Male BB/W rats (BRI, Mass) spontaneously develop a cell mediated autoimmune destruction of pancreatic B cells, resulting in onset of insulin-dependent (Type I) diabetes (Guberski 1994). […] This renders them valuable for experimental trials of new compounds for future treatments of this major disorder. In the present study, Compound D and Compound A were examined for their ability to alter the progression of diabetic neuropathy. The rats received daily injection of Compound D or Compound A (10 mg/kg i.p.) or vehicle, starting at the onset of diabetes (hyperglycemia) and up to 6 months thereafter. Another group of non-diabetic rats also receiving vehicle were tested. All animals were continuously monitored for body weight, urine volume, blood sugar and glycated haemoglobin. In the first month of the study, all animals were tested for thermal nociception in a Hargreaves apparatus, weekly. After the first month this was done biweekly and then monthly. The testing consists of directing an infrared heat source onto the dorsal surface of the rat hindpaw and noting the time taken for the animal to remove its paw (see Hargreaves et al., supra, for a description of the experimental method). Each animal was tested 8 times and the mean withdrawal latency noted.
Nerve conduction velocity was also measured every two weeks through the first eight weeks of treatment and every month thereafter through to the six months of treatment (see De Koning et al., Peptides, Vol. 8, No. 3, pp. 415–22 (1987) for a description of the experimental method). […] This was apparent starting at 8 weeks of treatment and persisted to a similar degree through to the six month termination point of the study.

Test [3] concerns STZ-diabetic rats. As to the kind of experiment: Reversal of diabetic neuropathy in STZ model, delayed dosing. The test is classed as in vivo, rat. As to conditions: for neuropathic hyperalgesia / motor nerve conduction velocity: daily p.o.; for neuropathic hyperalgesia: treatment from 5 weeks post STZ, within two weeks of treatment; for motor nerve conduction velocity: within 8 weeks of dosing, persisted through 12 weeks. Here is the method:
Rats (200–225 grams) were injected with STZ (70 mg/kg) into the tail vein. Diabetes (>350 mg/dl) was confirmed in all rats, 4 weeks after STZ administration. Rats were left untreated until 35–49 days after STZ. Compound D (1, 3, or 10 mg/kg), Compound E (10 mg/kg), or vehicle were dosed daily p.o. following confirmation of hyperalgesia and/or nerve conduction velocity deficits. In separate experiments, onset of treatment was delayed until 60 to 90 days after STZ administration. Nerve conduction velocity or withdrawal response to thermal stimulation of hind paws was measured at intervals, usually bi-weekly for thermal response and monthly for nerve conduction velocity.
Sensory and motor nerve conduction velocities were evaluated using the method of De Koning and Gispen (Peptides 8: 415–422, 1987). Electrophysiological evaluation was carried out within one hour of dosing. Animals were anesthetized with isoflurane and stimulating needle electrodes were inserted close to the sciatic nerve at the sciatic notch and the tibial nerve near the ankle. Recording electrodes were placed over the foot muscles. Stimuli were applied and responses recorded. Motor and sensory nerve conduction velocities were calculated by measuring the distance between the sciatic notch and ankle sites, and the latency between the M-wave and the H-reflex.
Animals were acclimated to the apparatus for at least 5 min. An infra-red source was placed under below the plantar surface of the rat hind-paw. The intensity of the source was adjusted so that latency for normal rats was about 10 secs. Animals were tested for thermal response latency according to the method of Hargreaves et al (Pain 77–88, 1988). Each animal was tested 8 times (4 each hind limb) and the latency of response recorded automatically to nearest 0.1 sec. An average of the last 4 measurements for each paw was calculated (8 total measurements) and noted for each rat.

The structures appear in SMILES notation.

T1 sequence (Q04609 whole entry): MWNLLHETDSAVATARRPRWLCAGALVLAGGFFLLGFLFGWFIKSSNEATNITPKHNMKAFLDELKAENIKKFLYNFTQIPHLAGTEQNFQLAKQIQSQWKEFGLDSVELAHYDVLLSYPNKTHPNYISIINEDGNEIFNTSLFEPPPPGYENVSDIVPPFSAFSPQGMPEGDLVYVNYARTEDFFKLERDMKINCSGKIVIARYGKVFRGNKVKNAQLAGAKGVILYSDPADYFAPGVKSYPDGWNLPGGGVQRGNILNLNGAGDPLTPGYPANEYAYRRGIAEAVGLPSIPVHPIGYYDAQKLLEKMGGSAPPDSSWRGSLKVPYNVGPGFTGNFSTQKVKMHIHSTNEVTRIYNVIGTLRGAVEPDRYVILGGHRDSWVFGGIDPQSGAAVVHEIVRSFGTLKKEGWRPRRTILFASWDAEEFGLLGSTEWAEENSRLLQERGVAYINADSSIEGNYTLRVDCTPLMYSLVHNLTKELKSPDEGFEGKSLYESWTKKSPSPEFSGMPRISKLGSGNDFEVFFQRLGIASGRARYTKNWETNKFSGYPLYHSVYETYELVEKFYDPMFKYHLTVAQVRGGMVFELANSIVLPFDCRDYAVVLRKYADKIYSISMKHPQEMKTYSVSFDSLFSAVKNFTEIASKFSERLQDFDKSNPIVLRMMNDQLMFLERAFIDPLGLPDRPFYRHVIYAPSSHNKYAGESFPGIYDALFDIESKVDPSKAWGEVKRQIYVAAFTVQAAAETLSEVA

One may read the IC50 as the concentration that gives 50% inhibition. On NAALADase, `O=C(O)c1[nH]c2ccccc2c1CCS` [Compound 1, 3-(2-mercaptoethyl)-1H-indole-2-carboxylic acid] registered a 50% inhibitory concentration (IC50) of 1.24 µM. At NAALADase, `O=C(O)c1[nH]c2c(C(=O)O)cccc2c1CCS` [Compound 2, 3-(2-mercaptoethyl)-1H-indole-2,7-dicarboxylic acid] registered a concentration for half-maximal inhibition (IC50) of 0.76 µM. `O=C(O)c1cccc(Cn2c(C(=O)O)c(CCS)c3ccccc32)c1` [Compound 3, 1-[(3-carboxyphenyl)methyl]-3-(2-mercaptoethyl)-1H-indole-2-carboxylic acid] returned an IC50 on NAALADase of 0.0553 µM. As for `O=C(O)c1ccc(Br)c(Cn2c(C(=O)O)c(CCS)c3ccccc32)c1` [Compound 4, 1-[(2-bromo-5-carboxyphenyl)methyl]-3-(2-mercaptoethyl)-1H-indole-2-carboxylic acid], the IC50 against NAALADase amounted to 0.0543 µM. At NAALADase, `O=C(O)c1ccc(Cn2c(C(=O)O)c(CCS)c3ccccc32)cc1` [Compound 5, 1-[(4-carboxyphenyl)methyl]-3-(2-mercaptoethyl)-1H-indole-2-carboxylic acid] yielded an IC50 of 0.0665 µM. The molecule `O=C(O)c1c(CCS)c2ccccc2n1Cc1ccccc1` [Compound 6, 3-(2-mercaptoethyl)-1-(phenylmethyl)-1H-indole-2-carboxylic acid] yielded an IC50 on NAALADase of 12.1 µM. Compared with the last molecule, the IC50 is about 180-fold higher. Molecule `O=C(O)c1ccccc1Cn1c(C(=O)O)c(CCS)c2ccccc21` [Compound 7, 1-[(2-carboxyphenyl)methyl]-3-(2-mercaptoethyl)-1H-indole-2-carboxylic acid] showed an IC50 at NAALADase of 0.0185 µM. The same measure, in the same setting: the figure for `CC(C)(C)c1cc(Cn2c(C(=O)O)c(CCS)c3ccccc32)cc(C(=O)O)c1` [Compound 8, 1-[[3-carboxy-5-(1,1-dimethylethyl)-phenyl]methyl]-3-(2-mercaptoethyl)-1H-indole-2-carboxylic acid] is 0.035 µM. `O=C(O)c1cc(Cn2c(C(=O)O)c(CCS)c3ccccc32)ccc1Br` [Compound 9, 1-[(4-bromo-3-carboxyphenyl)methyl]-3-(2-mercaptoethyl)-1H-indole-2-carboxylic acid] gave an IC50 on NAALADase of 0.104 µM.

In turn, `COc1ccc(C(=O)O)c(Cn2c(C(=O)O)c(CCS)c3ccccc32)c1` [Compound 10, 1-[(2-carboxy-5-methoxyphenyl)methyl]-3-(2-mercaptoethyl)-1H-indole-2-carboxylic acid] registered a half-inhibitory concentration (IC50) on NAALADase of 0.012 µM.

Regarding `O=C(O)c1c(CCS)c2ccccc2n1-c1ccccc1` [Compound 11, 3-(2-mercaptoethyl)-1-phenyl-1H-indole-2-carboxylic acid], at NAALADase, the IC50 amounted to 4.74 µM. At NAALADase, `O=C(O)c1c(CCS)c2ccccc2n1CCc1ccccc1` [Compound 12, 3-(2-mercaptoethyl)-1-(2-phenylethyl)-1H-indole-2-carboxylic acid] registered a half-maximal inhibitory concentration (IC50) of 44 µM. Consider `O=C(O)CCC(CCS)C(=O)O` (stereo not shown) [Compound D, 2-(2-sulfanylethyl)-pentanedioic acid], for which, in the test on STZ-diabetic rats [1], the “hyperalgesic response (withdrawal latency difference score)” value is “completely reversed”. For the same molecule, the “motor and sensory nerve conduction velocities” value in the test with STZ-diabetic rats [2] (1 mg/kg) is “increased”. Moreover, in the test with STZ-diabetic rats [2] (10 mg/kg daily, 4, 8 and 12 weeks), the “motor and sensory nerve conduction velocities” value was “increased”. In addition, the “nerve conduction velocity deficits versus diabetic vehicle controls” value with BB/W diabetic rats (10 mg/kg daily, from 8 weeks to six months) is “significantly less severe nerve conduction deficits”. In addition, in the test on BB/W diabetic rats (10 mg/kg i.p. daily, from 4 weeks through six months of treatment), the “withdrawal latency versus diabetic vehicle-treated rats” value is “longer withdrawal latencies”. In the test with STZ-diabetic rats [3] (STZ rats untreated until 60 days after STZ, external CRO), the “sensory and motor nerve conduction velocity deficits” value is on record as “Partial reversal”. Besides, in the test with STZ-diabetic rats [3] (STZ rats, 1 and 3 mg/kg, treatment from 7 weeks post STZ), the neuropathic pain abnormalities result was “Significant reduction”. For the same molecule, the motor nerve conduction entry in the test on STZ-diabetic rats [3] (STZ rats, 1 and 3 mg/kg, treatment from 7 weeks post STZ, 8 weeks after dosing) is “remained unimproved”. Besides, the sensory nerve conduction entry with STZ-diabetic rats [3] (STZ rats, 1 and 3 mg/kg, treatment from 7 weeks post STZ, within 4 weeks of treatment) is on record as “significantly improved towards normal”. Further, in the test with STZ-diabetic rats [3] (STZ rats), the neuropathic hyperalgesia result is “reversed towards normal” and the “motor nerve conduction velocity” value is reported as “reversed the motor nerve conduction velocity towards normal”. With `O=C(O)c1cccc(CC(CCCS)C(=O)O)c1` (stereo not drawn) [Compound E, 3-carboxy-alpha-(3-mercaptopropyl)benzenepropanoic acid], in the test with STZ-diabetic rats [3] (STZ rats), the neuropathic hyperalgesia result was “reversed towards normal” and the “motor nerve conduction velocity” value is “reversed the motor nerve conduction velocity towards normal”.
